Data published in article PMC10064984, “Anti-cyclooxygenase, anti-glycation, and anti-skin aging effect of Dendrobium officinale flowers’ aqueous extract and its phytochemical validation in aging” (Frontiers in Immunology, 2023).
“And” between values parts separate entries of the source, which are not always exact repeats. Identical values can stand only once. Like-named read-outs stand apart in the source and are kept apart here.

Tests used:
[1] = ABTS·+ decolourisation capacity; type: biochemical; details: for ABTS scavenging rate: replicate wells, listed as T9
Outline: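 ABTS·+ working solution in 0.2 M phosphate buffer, pH 7.4, was adjusted to A729 0.8 ± 0.05, and 100 μl was mixed with 200 μl sample; absorbance was read at 729 nm after 10 min, in triplicate. Inhibition was taken relative to a phosphate-buffer control, and IC50 was obtained graphically from dose-inhibition curves.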

[2] = FRAP total antioxidant capacity; type: biochemical; details: lower part of sheet (compound series);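 note: colourimetric FRAP kit assay read as absorbance in 96-well plates, values as mM FeSO4 via standard curve, EC1 being sample concentration matching 1.0 mmol/L FeSO4, Trolox positive control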
[3] = Online UPLC-PDA-MS-ABTS·+ scavenging (postcolumn derivatisation); details: within DOF extract
Protocol: Online identification of antioxidant components of DOF extract was performed using a UPLC system (Milford, MA, USA) consisting of a Waters photodiode array detector and a Waters postcolumn derivatisation system supplying fresh ABTS solution (UPLC-PDA-QDa-ABTS). […] The detection wavelengths were set at 280 and 734 nm, and the injection volume of the sample was 10 μl.
To detect radical scavengers, the UPLC system was coupled with a Waters pump, which supplied freshly prepared ABTS·+ solution into a reaction coil (15 m, 0.25 mm ID) with a flow rate of 0.2 ml/min at 37°C. Negative peaks were recorded based on a decrease of absorbance at 729 nm after the reaction of individual compounds with the ABTS·+ radical. For preliminary identification of compounds, a Waters Acquity QDa mass detector in negative ionisation mode was connected in series to PDA with the following parameters: electrospray ion source; cone voltage, 15 V; atomiser, N2; and scanning range, 100–800 m/z.

COX-2 = molecular target: T1, COX-2 (Homo sapiens, UniProt P35354); experiment: Anti-COX-2 assay (COX-2 Inhibitor Screening Kit); type: biochemical
T1 construct: purchased Beyotime S0168
T1 sequence (P35354 18-604): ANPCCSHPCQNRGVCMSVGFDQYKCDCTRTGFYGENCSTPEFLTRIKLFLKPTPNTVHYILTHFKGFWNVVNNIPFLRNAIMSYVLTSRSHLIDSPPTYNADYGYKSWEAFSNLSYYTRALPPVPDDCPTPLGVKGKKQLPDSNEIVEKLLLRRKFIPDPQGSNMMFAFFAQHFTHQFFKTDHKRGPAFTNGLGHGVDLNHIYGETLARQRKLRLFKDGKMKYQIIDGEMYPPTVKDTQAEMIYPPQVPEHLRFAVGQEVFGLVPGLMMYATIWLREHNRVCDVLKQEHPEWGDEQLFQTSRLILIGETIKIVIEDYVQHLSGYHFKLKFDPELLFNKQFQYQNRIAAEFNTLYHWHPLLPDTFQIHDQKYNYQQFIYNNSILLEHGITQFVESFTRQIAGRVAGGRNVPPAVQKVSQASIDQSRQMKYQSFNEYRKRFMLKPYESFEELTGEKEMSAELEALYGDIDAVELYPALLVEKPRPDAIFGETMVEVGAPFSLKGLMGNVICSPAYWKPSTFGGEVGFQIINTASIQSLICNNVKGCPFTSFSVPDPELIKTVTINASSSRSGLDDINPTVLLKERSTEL

DPPH· scavenging = type: biochemical; details: mean ± SD, n = 3
[4] = Fluorescent AGEs formation in a BSA-fructose/glucose system; type: biochemical; details: for inhibition of fluorescent AGEs formation (BSA-抗糖化), single replicate: individual replicate; for inhibition of fluorescent AGEs formation (BSA-抗糖化), 平均 (mean): mean of 3 replicates
Outline: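 BSA glycated in vitro with D-glucose and D-fructose while test samples, dissolved in DMSO:water (1:4), were present. Percent inhibition of fluorescent AGE formation calculated from fluorescence corrected for sample-only and BSA-free blanks; triplicate.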

[5] = 15.625 µM, listed as T9, 15.625 µM
[6] = 31.25 µM, listed as T9, 31.25 µM

In the case of O=c1c(OC2OC(CO)C(O)C(O)C2OC2OC(CO)C(O)C(O)C2O)c(-c2ccc(O)c(O)c2)oc2cc(O)cc(O)c12 (centres unmarked) [compound 16, Quercetin-3-O-sophoroside], the ABTS scavenging rate ([1]; 0.1mM (second) series, concentration 1.5625 (unit not given)) is reported as 15.90% and 14.14% and 8.19%, the ABTS scavenging rate ([1]; 0.1mM (second) series, concentration 3.125 (unit not given)) is reported as 24.15% and 23.67% and 20.29% and the ABTS scavenging rate ([1]; 0.1mM (second) series, concentration 6.25 (unit not given)) is reported as 44.10% and 44.05% and 40.43%. The ABTS scavenging rate ([1]; 0.1mM (second) series, concentration 12.5 (unit not given)) was 74.66% and 75.28% and 72.52%, the ABTS scavenging rate ([1]; 0.1mM (second) series, concentration 25 (unit not given)) was 99.29% and 99.51% and 99.54% and the ABTS scavenging rate ([1]; 0.1mM (second) series, concentration 50 (unit not given)) was 99.16% and 99.11% and 99.25%. The ABTS scavenging rate ([1]; 0.1mM (second) series, concentration 100 (unit not given)) was 98.65% and 98.51% (2×), the ABTS scavenging rate ([1]; 0.5mM series, concentration 7.8125 (unit not given)) was 63.17% and 62.77% and 62.93% and the ABTS scavenging rate ([1]; 0.5mM series, concentration 15.625 (unit not given)) was 91.66% and 90.68% and 90.61%. The ABTS scavenging rate ([1]; 0.5mM series, concentration 31.25 (unit not given)) was 99.28% and 99.41% and 99.37%, the ABTS scavenging rate ([1]; 0.5mM series, concentration 62.5 (unit not given)) was 98.95% and 98.76% and 98.72% and the ABTS scavenging rate ([1]; 0.5mM series, concentration 125 (unit not given)) was 98.61% and 98.31% and 98.43%. The ABTS scavenging rate ([1]; 0.5mM series, concentration 500 (unit not given)) was 98.97% and 98.88% and 98.79%, the IC50 ([1]; mean ± SD, n = 3) was 6.63 ± 0.41 µM and the “FRAP EC1” value [2] was 949.6 ± 41.9 µM. The “online ABTS radical scavenging (size of negative peaks at 734 nm)” value [3] was “strongest ABTS radical scavengers”, the “COX-2 inhibition (in words)” value (COX-2) was “great COX-2 inhibition” and the inhibition at 3.125 µM (COX-2; 3.125 μM, single replicates) was 18.7%. The COX-2 inhibition (COX-2; 3.125 μM, single replicates, listed as T9, 3.125 µM) was 24.64% and 15.29%, the inhibition at 6.25 µM (COX-2; 6.25 μM, single replicates) was 29.8% and the COX-2 inhibition (COX-2; 6.25 μM, single replicates, listed as T9, 6.25 µM) was 26.80% and 27.13%. The inhibition at 12.5 µM (COX-2; 12.5 μM, single replicates) was 61.6%, the COX-2 inhibition (COX-2; 12.5 μM, single replicates, listed as T9, 12.5 µM) was 66.25% and 69.30% and the inhibition at 25 µM (COX-2; 25 μM, single replicates) was 73.7%. The COX-2 inhibition (COX-2; 25 μM, single replicates, listed as T9, 25 µM) was 76.43% and 76.52%, the inhibition at 50 µM (COX-2; 50 μM, single replicates) was 77.8% and the COX-2 inhibition (COX-2; 50 μM, single replicates, listed as T9, 50 µM) was 79.58% and 76.60%. The inhibition at 100 µM (COX-2; 100 μM, single replicates) was 79.3%, the COX-2 inhibition (COX-2; 100 μM, single replicates, listed as T9, 100 µM) was 79.42% and 83.93% and the inhibition at 200 µM (COX-2; 200 μM, single replicates) was 80.9%. For the same compound, the COX-2 inhibition (COX-2; 200 μM, single replicates, listed as T9, 200 µM) was 81.85% and 81.79%, the IC50 (COX-2; mean ± SD, n = 3, nd, not detected, read-out: COX-2 IC50) was 11 ± 0.7 µM and the IC50 (COX-2; supplement sheet COX, read-out: COX-2 IC50, single replicate) was 11.7 µM and 10.4 µM and 10.9 µM. The IC50 (DPPH· scavenging) was 172 ± 76 µM, the “inhibition of fluorescent AGEs formation (BSA-抗糖化), single replicate” value (from here on “inhibition … single replicate”) [4, 5] was -5.89% and 1.09% and -2.67% and the “inhibition of fluorescent AGEs formation (BSA-抗糖化), 平均 (mean)” value (“inhibition … (mean)” below) [4, 5] was -2.49%. The “inhibition … single replicate” value [4, 6] was 4.38% and 4.16% and -1.45%, the “inhibition … (mean)” value [4, 6] was 2.37% and the “inhibition … single replicate” value ([4]; 62.5 µM, listed as T9, 62.5 µM) was 13.91% and 12.77% and 15.77%. For the same compound, the “inhibition … (mean)” value ([4]; 62.5 µM, listed as T9, 62.5 µM) was 14.15%, the “inhibition … single replicate” value ([4]; 125 µM, listed as T9, 125 µM) was 29.89% and 32.42% and 28.07% and the “inhibition … (mean)” value ([4]; 125 µM, listed as T9, 125 µM) was 30.13%. The “inhibition … single replicate” value ([4]; 250 µM, listed as T9, 250 µM) was 44.67% and 46.80% and 48.36%, the “inhibition … (mean)” value ([4]; 250 µM, listed as T9, 250 µM) was 46.61% and the “inhibition … single replicate” value ([4]; 500 µM, listed as T9, 500 µM) was 63.53% and 64.37% and 63.12%. For the same compound, the “inhibition … (mean)” value ([4]; 500 µM, listed as T9, 500 µM) was 63.67%, the “inhibition … single replicate” value ([4]; 1000 µM, listed as T9, 1000 µM) was 79.44% and 79.91% and 79.18% and the “inhibition … (mean)” value ([4]; 1000 µM, listed as T9, 1000 µM) was 79.51%. For the same compound, the “inhibition … single replicate” value ([4]; 2000 µM, listed as T9, 2000 µM) was 88.85% and 89.28% and 89.06%, the “inhibition … (mean)” value ([4]; 2000 µM, listed as T9, 2000 µM) was 89.06% and the “inhibition … single replicate” value ([4]; 4000 µM (series head 'T9 4000µM', 2-fold dilutions), listed as T9) was 94.75% and 94.42% and 94.91%. The “inhibition … (mean)” value ([4]; 4000 µM, listed as T9, 4000 µM) was 94.69% and the IC50 ([4]; mean ± SD, n = 3, read-out: BSA-glycation IC50) was 296 ± 8.5 µM.
